Assay results: US12473295B2, “Substituted straight chain spiro derivatives” (Janssen Pharmaceutica NV, priority 2019, dated 2025)
Structures can show the parent of a compound that is named as a salt. Where two headings read alike, the source gives them in different places.

Legend:
[1] = molecular target: menin/MLL (terbium chelate-labeled menin, FITC-MBM1 peptide) (Homo sapiens (Human), UniProt O00255); test: Menin/MLL homogenous time-resolved fluorescence (HTRF) assay; format: binding;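 note: IC50 from percent inhibition of HTRF signal, normalized between wells without competitor and wells with a saturating competitor that displaces FITC-MBM1 from His-tagged menin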
MOLM14 cells = test: Proliferation assay (spheroid growth, 8 days), MOLM14; format: cell-based, human; conditions: MOLM14, 8 days, read-out: spheroid assay_OneTime MOLM14 IC50;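 note: spheroid size read as confluence by live-cell imaging, compounds added at a range of concentrations with 0.3% DMSO, DMSO-treated wells = 0%, highest reference dose = low control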
OCI-AML3 cells = test: Proliferation assay (spheroid growth, 8 days), OCI-AML3; format: cell-based, human
Outline: (§1)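 8-day spheroid growth in ultra-low attachment plates; seeding 200 cells (MOLM14, OCI-AML3) or 300 (KO-52); DMSO 0.3%. Day-8 imaging, confluence vs DMSO (0%) and top reference dose (baseline); IC50 by variable-slope fit.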

KO-52 cells = test: Proliferation assay (spheroid growth, 8 days), KO-52 control cell line; format: cell-based, human; conditions: read-out: spheroid assay_OneTime KO-52 IC50
Outline: as §1

MEIS1 mRNA = MEIS1 mRNA expression assay (Quantigene Singleplex) in MOLM14 cells; format: cell-based, human;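 note: MEIS1 transcript levels read by probe hybridization and normalized to RPL28 mRNA, with IC50 fitted to fold changes across a rising compound concentration series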
hERG potassium channel = hERG potassium channel (Homo sapiens (Human), UniProt Q12809); test: Effect on membrane potassium current IKr in hERG transfected CHO cells, Protocol 1 (QPatch); format: cell-based
Procedure: 8) Effect on the Membrane Potassium Current IKr in hERG Transfected Cell Lines
• CHO Chinese hamster ovary cell line • DMSO Dimethylsulfoxide • hERG human ether-á-go-go-related gene • IKr rapidly activating delayed-rectifier K^+ current Methods
Experiments were performed using CHO cells stably expressing the hERG potassium channel. Cells were grown at 37° C. and 5% CO2 in culture flasks in Ham's F12 Medium supplemented with 10% heat-inactivated fetal calf serum, hygromycin B (100 μg/ml) and geneticin (100 μg/ml). For use in the automated patch-clamp system QPatch (Sophion) cells were harvested to obtain cell suspension of single cells.
Solutions: The bath solution contained (in mM) 145 NaCl, 4 KCl, 10 glucose, 10 HEPES ((4-(2-hydroxyethyl)-1-piperazineethanesulfonic acid), 2 CaCl2 and 1 MgCl2 (pH 7.4 with NaOH). The pipette solution contained (in mM) 120 KCl, 10 EGTA (Ethylene glycol-bis(2-aminoethylether)-N,N,N′,N′-tetraacetic acid), 10 HEPES, 5.374 CaCl2 and 1.75 MgCl2 (pH 7.2 with KOH).
Patch-clamp experiments were performed in the voltage-clamp mode and whole-cell currents were recorded with an automated patch-clamp assay utilizing the QPatch system (Sophion). Current signals were amplified and digitized, stored and analyzed by using the QPatch assay software.
The holding potential was −80 mV. The hERG current (K^+-selective outward current) was determined as the maximal tail current at −40 mV after a 2 second depolarization to +60 mV. Pulse cycling rate was 15 s. A short pulse (90 ms) to −40 mV served as a baseline step to calculate the tail current amplitude. After establishing whole-cell configuration and a stability period, the solvent control (0.3% DMSO) was applied for 5 minutes followed by the test substance by four increasing concentrations of 3×10^−7 M, 3×10^−6 M, 10^−5 M and 3×10^−5 M. Each concentration of the test substance was applied twice. The effect of each concentration was determined after 5 min as an average current of 3 sequential voltage pulses. To determine the extent of block the residual current was compared with vehicle pre-treatment.
Concentration/response relations were calculated by non-linear least-squares fits to the individual data points. The half-maximal inhibiting concentration (IC50) was calculated by the fitting routine.

[2] = HTRF-30 min incubation IC50, 30 min incubation
[3] = Homo sapiens, OCI-AML-3, […], OCI-AML3, 8 days
[4] = Homo sapiens, MOLM-14, 48 h, 48 hours incubation
[5] = Homo sapiens, OCI-AML-3, OCI-AML3, 8 days
[6] = Homo sapiens, MOLM-14, 48 hours incubation

Chain of hERG potassium channel (Q12809 whole entry): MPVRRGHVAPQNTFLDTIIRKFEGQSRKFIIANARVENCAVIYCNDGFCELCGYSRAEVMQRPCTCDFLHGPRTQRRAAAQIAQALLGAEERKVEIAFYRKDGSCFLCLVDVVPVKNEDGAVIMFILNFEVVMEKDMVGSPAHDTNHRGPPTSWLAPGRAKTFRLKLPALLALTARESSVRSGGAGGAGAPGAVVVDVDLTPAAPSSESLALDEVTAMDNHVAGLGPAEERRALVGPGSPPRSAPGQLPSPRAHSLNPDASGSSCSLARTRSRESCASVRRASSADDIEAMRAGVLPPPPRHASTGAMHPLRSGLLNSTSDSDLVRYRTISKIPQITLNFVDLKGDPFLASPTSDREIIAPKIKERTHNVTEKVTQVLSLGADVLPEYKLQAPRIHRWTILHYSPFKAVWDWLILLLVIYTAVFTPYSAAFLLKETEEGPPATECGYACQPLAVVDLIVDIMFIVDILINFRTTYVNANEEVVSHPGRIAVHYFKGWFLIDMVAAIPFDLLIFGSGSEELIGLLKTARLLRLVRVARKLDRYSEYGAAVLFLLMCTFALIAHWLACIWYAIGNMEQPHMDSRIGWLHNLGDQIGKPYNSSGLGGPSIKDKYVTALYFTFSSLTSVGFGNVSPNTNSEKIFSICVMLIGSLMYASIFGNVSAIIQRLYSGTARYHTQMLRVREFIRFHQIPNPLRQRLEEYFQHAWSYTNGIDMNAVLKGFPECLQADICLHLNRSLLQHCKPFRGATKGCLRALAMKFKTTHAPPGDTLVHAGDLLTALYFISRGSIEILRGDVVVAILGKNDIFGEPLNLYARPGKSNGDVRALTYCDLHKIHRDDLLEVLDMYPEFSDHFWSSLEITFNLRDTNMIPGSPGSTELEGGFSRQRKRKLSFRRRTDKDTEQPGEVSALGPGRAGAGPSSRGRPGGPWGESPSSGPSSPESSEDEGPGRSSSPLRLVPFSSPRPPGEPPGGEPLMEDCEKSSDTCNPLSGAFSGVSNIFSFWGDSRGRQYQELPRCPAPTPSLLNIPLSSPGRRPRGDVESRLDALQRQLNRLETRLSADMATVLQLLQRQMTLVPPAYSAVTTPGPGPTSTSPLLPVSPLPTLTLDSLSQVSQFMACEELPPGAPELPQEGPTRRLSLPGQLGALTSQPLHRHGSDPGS
Chain of menin/MLL (terbium chelate-labeled menin, FITC-MBM1 peptide) (O00255 other isoform, or with tags, fused parts or gaps): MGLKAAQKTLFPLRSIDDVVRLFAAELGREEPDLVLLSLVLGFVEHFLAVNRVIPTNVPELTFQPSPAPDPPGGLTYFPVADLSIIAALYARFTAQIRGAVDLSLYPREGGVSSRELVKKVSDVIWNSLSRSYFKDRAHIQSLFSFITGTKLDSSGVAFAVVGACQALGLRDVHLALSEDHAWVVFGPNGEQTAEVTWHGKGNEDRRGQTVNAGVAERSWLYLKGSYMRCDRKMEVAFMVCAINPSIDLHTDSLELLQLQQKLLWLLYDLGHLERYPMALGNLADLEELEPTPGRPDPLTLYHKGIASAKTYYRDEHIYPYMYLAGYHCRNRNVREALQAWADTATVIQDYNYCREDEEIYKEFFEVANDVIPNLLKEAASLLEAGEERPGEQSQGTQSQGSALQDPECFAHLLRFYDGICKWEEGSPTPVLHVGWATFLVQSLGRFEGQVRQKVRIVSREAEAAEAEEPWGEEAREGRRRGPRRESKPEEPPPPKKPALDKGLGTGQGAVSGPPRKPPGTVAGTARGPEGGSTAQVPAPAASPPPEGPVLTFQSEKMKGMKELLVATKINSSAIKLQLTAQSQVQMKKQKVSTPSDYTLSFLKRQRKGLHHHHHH

IC50 [1, 2] | IC50 (MOLM14 cells; Homo sapiens, MOLM-14, […]) | IC50 (OCI-AML3 cells; [3]) | IC50 (MEIS1 mRNA; [4]) | IC50 ([1]; read-out: HTRF-30 min incubation IC50, 30 min incubation) | IC50 (MOLM14 cells) | IC50 (OCI-AML3 cells; OCI-AML3, 8 days) | IC50 (MEIS1 mRNA; 48 hours incubation) | Structure (SMILES) | IC50 (KO-52 cells; Homo sapiens, […]) | IC50 (hERG potassium channel) | IC50 (KO-52 cells) | IC50 (MOLM14 cells; Homo sapiens, MOLM-14) | IC50 (OCI-AML3 cells; [5]) | IC50 (KO-52 cells; Homo sapiens) | IC50 (MEIS1 mRNA; [6])
0.87 nM | 3840 nM | 3440 nM | > 1000 nM |  |  |  |  | CCN(C(=O)c1cc(F)ccc1Oc1nncnc1N1CCC2(C1)CN([C@H](CCC(C)(C)NC(C)=O)C(C)C)C2)C(C)C (single isomer, unassigned) [Compound 34] | > 15000 nM | > 30200 nM |  |  |  |  | 
0.15 nM | 200 nM | 490 nM | 120 nM |  |  |  |  | CCN(C(=O)c1cc(F)ccc1Oc1nncnc1N1CCC2(C1)CN([C@H](CCC(C)(C)NC)C(C)C)C2)C(C)C (single isomer, unassigned) [Compound 35, (*R)-2-((5-(2-(2,6-dimethyl-6-(methylamino)heptan-3-yl)-2,6-diazaspiro[3.4]octan-6-yl)-1,2,4-triazin-6-yl)oxy)-N-ethyl-5-fluoro-N-isopropylbenzamide hydrochloride] | > 15000 nM | > 30200 nM |  |  |  |  | 
 |  |  |  | 0.21 nM | 53 nM | 410 nM | 140 nM | CC(C)[C@@H](CCCN(C)C)N1CC2(CCN(c3ccnnc3Oc3ccc(F)cc3C(=O)N(C(C)C)C(C)C)C2)C1 (single isomer, unassigned) [Compound 75, (*R)-2-((4-(2-(6-(dimethylamino)-2-methylhexan-3-yl)-2,6-diazaspiro[3.4]octan-6-yl)pyridazin-3-yl)oxy)-5-fluoro-N,N-diisopropylbenzamide] |  | > 30200 nM | > 15000 nM |  |  |  | 
0.12 nM | 10 nM | 96 nM | 8.2 nM |  |  |  |  | COCCN(C)CCC[C@H](C(C)C)N1CC2(CCN(c3ncnnc3Oc3ccc(F)cc3C(=O)N(C(C)C)C(C)C)C2)C1 (single isomer, unassigned) [Compound 94, (*R)-5-fluoro-N,N-isopropyl-2-((5-(2-(6-((2-methoxyethyl)(methyl)amino)-methylhexan-3-yl)-2,6-diazaspiro[3.4]octan-6-yl)-1,2,4-triazin-6-yl)oxy)benzamide oxalate] | 4750 nM | 30900 nM |  |  |  |  | 
0.095 nM | 30 nM | 390 nM | 20 nM |  |  |  |  | CCN(C(=O)c1cc(F)ccc1Oc1nncnc1N1CCC2(C1)CN([C@H](CCCN(C)C)C(C)C)C2)C(C)C [Compound 4, (R)-2-((5-(2-(6-(dimethylamino)-2-methylhexan-3-yl)-2,6-diazaspiro[3.4]octan-6-yl)-1,2,4-triazin-6-yl)oxy)-N-ethyl-5-fluoro-N-isopropylbenzamide] | > 15000 nM | > 30200 nM |  |  |  |  | 
0.05 nM | 10 nM | 69 nM | 8.5 nM |  |  |  |  | CCN(C(=O)c1cc(F)ccc1Oc1nncnc1N1CCC2(C1)CN([C@H](CCCNCCC(F)(F)F)C(C)C)C2)C(C)C [Compound 14, (R)-N-ethyl-5-fluoro-N-isopropyl-2-((5-(2-(2-methyl-6-((3,3,3-trifluoropropyl)amino)hexan-3-yl)-2,6-diazaspiro[3.4]octan-6-yl)-1,2,4-triazin-6-yl)oxy)benzamide] | 3100 nM | 20000 nM |  |  |  |  | 
0.61 nM | 300 nM | 1440 nM | 240 nM |  |  |  |  | CCN(C(=O)c1cc(F)ccc1Oc1nncnc1N1CCC2(C1)CN([C@H](CCCNCC(F)(F)F)C(C)C)C2)C(C)C [Compound 17, (R)-N-ethyl-5-fluoro-N-isopropyl-2-((5-(2-(2-methyl-6-((2,2,2-trifluoroethyl)amino)hexan-3-yl)-2,6-diazaspiro[3.4]octan-6-yl)-1,2,4-triazin-6-yl)oxy)benzamide] | 6790 nM | 4100 nM |  |  |  |  | 
0.3 nM | 120 nM | 660 nM | 150 nM |  |  |  |  | CCN(C(=O)c1cc(F)ccc1Oc1nncnc1N1CCC2(C1)CN(C(CCCNCCS(C)(=O)=O)C(C)C)C2)C(C)C (stereo not drawn) [Compound 18, N-ethyl-5-fluoro-N-isopropyl-2-((5-(2-(2-methyl-6-((2-(methylsulfonyl)ethyl)amino)hexan-3-yl)-2,6-diazaspiro[3.4]octan-6-yl)-1,2,4-triazin-6-yl)oxy)benzamide] | > 15000 nM | > 30200 nM |  |  |  |  | 
0.22 nM | 170 nM | 810 nM | 150 nM |  |  |  |  | CCN(C(=O)c1cc(F)ccc1Oc1nncnc1N1CCC2(C1)CN([C@H](CCCN(C)CC(=O)N(C)C)C(C)C)C2)C(C)C [Compound 23] | 13800 nM | > 30200 nM |  |  |  |  | 
0.26 nM | 27 nM | 140 nM | 44 nM |  |  |  |  | CCN(C(=O)c1cc(F)ccc1Oc1nncnc1N1CCC2(C1)CN([C@H](CCCNC(=O)OC(C)OC(=O)C(C)C)C(C)C)C2)C(C)C (stereo partly drawn) [Compound 39, 1-((((R)-4-(6-(6-(2-(ethyl(isopropyl)carbamoyl)-4-fluorophenoxy)-1,2,4-triazin-5-yl)-2,6-diazaspiro[3.4]octan-2-yl)-5-methylhexyl)carbamoyl)oxy)ethyl isobutyrate] | > 15000 nM | 7600 nM |  |  |  |  | 
0.4 nM | 19 nM | 74 nM | 19 nM |  |  |  |  | CCN(C(=O)c1cc(F)ccc1Oc1nncnc1N1CCC2(C1)CN([C@H](CCCN(C)C(=O)OC(C)OC(=O)C(C)C)C(C)C)C2)C(C)C (stereo partly drawn) [Compound 40, 1-((((R)-4-(6-(6-(2-(ethyl(isopropyl)carbamoyl)-4-fluorophenoxy)-1,2,4-triazin-5-yl)-2,6-diazaspiro[3.4]octan-2-yl)-5-methylhexyl)(methyl)carbamoyl)oxy)ethyl isobutyrate] | 9540 nM | 5000 nM |  |  |  |  | 
0.065 nM | 32 nM | 640 nM | 53 nM |  |  |  |  | CCN(C(=O)c1cc(F)ccc1Oc1nncnc1N1CCC2(C1)CN([C@H](CCCN(C)CC(C)OC)C(C)C)C2)C(C)C (stereo partly drawn) [Compound 252, N-ethyl-5-fluoro-N-isopropyl-2-((5-(2-((3R)-6-((2-methoxypropyl)(methyl)amino)-2-methylhexan-3-yl)-2,6-diazaspiro[3.4]octan-6-yl)-1,2,4-triazin-6-yl)oxy)benzamide oxalate] | 7260 nM | > 30200 nM |  |  |  |  | 

Structure (SMILES) | IC50 [1, 2] | IC50 (MOLM14 cells; Homo sapiens, MOLM-14, […]) | IC50 (OCI-AML3 cells; [3]) | IC50 (MEIS1 mRNA; [4]) | IC50 ([1]; read-out: HTRF-30 min incubation IC50, 30 min incubation) | IC50 (MOLM14 cells) | IC50 (OCI-AML3 cells; OCI-AML3, 8 days) | IC50 (MEIS1 mRNA; 48 hours incubation) | IC50 (KO-52 cells; Homo sapiens, […]) | IC50 (hERG potassium channel) | IC50 (KO-52 cells) | IC50 (MOLM14 cells; Homo sapiens, MOLM-14) | IC50 (OCI-AML3 cells; [5]) | IC50 (KO-52 cells; Homo sapiens) | IC50 (MEIS1 mRNA; [6])
CCN(C(=O)c1cc(F)ccc1Oc1nncnc1N1CCC2(C1)CN([C@H](CCCNC(=O)OC)C(C)C)C2)C(C)C [Compound 10, methyl (R)-(4-(6-(6-(2-(ethyl(isopropyl)carbamoyl)-4-fluorophenoxy)-1,2,4-triazin-5-yl)-2,6-diazaspiro[3.4]octan-2-yl)-5-methylhexyl)carbamate] | 0.18 nM |  |  |  |  |  |  |  |  | > 30200 nM |  | 340 nM | 1680 nM | > 15000 nM | 410 nM
CCN(C(=O)c1cc(F)ccc1Oc1nncnc1N1CCC2(C1)CN([C@H](CCCNCCC#N)C(C)C)C2)C(C)C [Compound 12, (R)-2-((5(2-(6-((2-cyanoethyl)amino)-2-methylhexan-3-yl)-2,6-diazaspiro[3.4]octan-6-yl)-1,2,4-triazin-6-yl)oxy)-N-ethyl-5-fluoro-N-isopropylbenzamide] | 0.12 nM |  |  |  |  |  |  |  |  | > 30200 nM |  | 36 nM | 630 nM | 8240 nM | 39 nM
